# According to ChEMBL document CHEMBL1142493, “Structure-based approach to the development of potent and selective inhibitors of dihydrofolate reductase from cryptosporidium” (J Med Chem, 2008):
# Test: Inhibition of Cryptosporidium hominis dihydrofolate reductase expressed in Escherichia coli by spectrophotometry
row,SMILES,IC50 [nM]
1,COc1cc(-c2c(C)cccc2C)cc(C(C)C#Cc2c(C)nc(N)nc2N)c1 (racemic),2.1
2,COc1cc(C(C)C#Cc2c(C)nc(N)nc2N)ccc1-c1c(C(C)C)cccc1C(C)C (racemic),16
